Counter-ions that a name gives are not always drawn. Marks after values point to notes of the source that are not given here.
How the values were obtained:
Format in all cases: in vivo
[1] = tested on: castor-oil induced diarrhea; assay: castor oil induced diarrhea in rats; details: reference drug 5.0 mg/kg p.o., 2 mL castor oil after 60 min, observed 4 h
Method: The efficacy of composition as an antidiarrheal agent was evaluated using castor oil induced diarrhea. The castor oil model has been an extensively used pharmacological test to screen and evaluate antidiarrheal properties of drugs in rats. The liberation of ricinoleic acid from castor oil results in irritation and inflammation of intestinal mucosa, leading to release of prostaglandins, which stimulates motility and secretion (Pierce, N. F., Carpenter. C. C. J., Elliiot, H. Z. and Greenough, W. B., Effects of prostaglandins, Theophylline and cholera exotoxin upon transmucosalwater and electrolyte movement in canine jejunum, Gastroenterology, 1971; 60: 22-32). Castor oil is also reported to induce diarrhea by increasing the volume of intestinal content by prevention of the reabsorption of water. […] After 60 min each animal was given with 2 mL of castor oil by orogastric cannula, and placed in a separate cage and observed for 4 h defecation the characteristic diarrheal droppings were noted and recorded.
The castor oil model has been an extensively used pharmacological test to screen and evaluate antidiarrheal properties of drugs in rats. […] After 60 min each animal was given with 2 mL of castor oil by orogastric cannula, and placed in a separate cage and observed for 4 h defecation the characteristic diarrheal droppings were noted and recorded.

aspirin induced ulcers = aspirin induced ulcers in rats; details: aspirin 200 mg/kg, positive control, dose given as 50, mean ± SEM, six rats
Method: The effect of the composition on ulcers was evaluated using aspirin induced ulcer model. […] Ulcers were scored after 4 h. The animals were sacrificed and the stomach was then excised and cut along the greater curvature, washed carefully with 5.0 ml of 0.9% NaCl and ulcers were scored in the glandular portion of the stomach. Ulcer index was calculated by adding the total number of ulcers per stomach and the total severity of ulcers per stomach.
The effect of the composition on ulcers was evaluated using aspirin induced ulcer model.

[2] = tested on: pylorus ligation induced ulcers; assay: pylorus ligation (PL) induced ulcers in rats; details: positive control, dose given as 50, mean ± SEM, six rats
Method: The effect of the composition as an antiulcer agent was further justified using pylorus ligation (PL)-induced ulcer model. […] The mentioned drugs were administered for a period of 5 days as described above and the rats were kept for 18 h fasting and care was taken to avoid coprophagy. Animals were anaesthetized and the abdomen was opened and pylorus ligation was done without causing any damage to its blood supply. After 4 h, stomachs were dissected out and cut open along the greater curvature and ulcers were scored in the glandular portion of the stomach as mentioned in aspirin induced ulcers.
The effect of the composition as an antiulcer agent was further justified using pylorus ligation (PL)-induced ulcer model.
The mentioned drugs were administered for a period of 5 days as described above and the rats were kept for 18 h fasting and care was taken to avoid coprophagy. Animals were anaesthetized and the abdomen was opened and pylorus ligation was done without causing any damage to its blood supply. After 4 h, stomachs were dissected out and cut open along the greater curvature and ulcers were scored in the glandular portion of the stomach as mentioned in aspirin induced ulcers.

[3] = tested on: cold restrained stress (CRS) induced ulcers; assay: cold restrained stress (CRS) induced ulcers in rats; details: positive control, dose given as 50, mean ± SEM, six rats
Method: The effect of composition was further observed on cold resistant stress model of ulcer. […] Rats were starved for 48 hours, and the drinking solution was removed 1 hour before starting experiments. For cold-restraint s tress, the rats were restrained in individual close-fitting tubular wire-mesh cages at 4° C. […] At the end of 2 hours, all the rats were sacrificed. The ulcer index was scored, based upon the product of length and width of the ulcers present in the glandular portion of the stomach (mm^2/rat).
The effect of composition was further observed on cold resistant stress model of ulcer. […] Rats were starved for 48 hours, and the drinking solution was removed 1 hour before starting experiments. For cold-restraint stress, the rats were restrained in individual close-fitting tubular wire-mesh cages at 4° C.

ethanol induced ulcers = ethanol induced ulcers in rats; details: EtOH 1 ml/200 g, positive control, dose given as 50, mean ± SEM, six rats
Method: Further, effect of the composition was evaluated using ethanolinduced ulcer model. […] The ulcer index was scored, based upon the product of length and width of the ulcers present in the glandular portion of the stomach (mm^2/rat).
The ulcer index was scored, based upon the product of length and width of the ulcers present in the glandular portion of the stomach (mm^2/rat).

SMILES | Total number of faecal matter [1] | Ulcer Index (aspirin induced ulcers) | Ulcer Index [2] | Ulcer Index [3] | Ulcer Index (ethanol induced ulcers)
CCOC(=O)C1(c2ccccc2)CCN(CCC(C#N)(c2ccccc2)c2ccccc2)CC1 [DiphenoxylateHCl, diphenoxylate HCl] | 19 |  |  |  | 
CNC(=C[N+](=O)[O-])NCCSCc1ccc(CN(C)C)o1 [Ranitidine, ranitidine] |  | 7.6 ± 1.4^a | 4.9 ± 1.3^b | 6.9 ± 1.0^c mm^2/rat | 10.3 ± 2.8^a mm^2/rat
